According to patent US8629300B2, “Arylamine-substituted divinyl fluorenes and their use for electrophotographic applications, and for OLEDs (organic light emitting devices)” (Sensient Imaging Technologies GmbH, priority 2006, dated 2014):

Experiment: Solubility analysis in methylen chloride or THF
Assay type: physicochemical
Procedure: Compound 12 complies with the solubility requirements set by the industry of 1 g substance/6 ml methylen chloride or THF. This compound was scaled up to 35 g. The compound was brought to an HPLC purity of >99.5% by using conventional purification methods, like e.g. recrystallization or column chromatography.

solubility (complies with the solubility requirements set by the industry): ≥ 1 g substance/6 ml
Structure (SMILES): Cc1ccc(N(c2ccc(C)cc2)c2ccc(/C=C/c3ccc4c(c3)C(C)(C)c3cc(/C=C/c5ccc(N(c6ccc(C)cc6)c6ccc(C)cc6)cc5)ccc3-4)cc2)cc1 [Compound 12, 2,7-Bis-(4-di-p-tolylaminophenylethenyl)-9,9-dimethyl-9H-fluorene]
